# Test results taken from patent publication US20070111966A1, “Method for the treatment and/or prevention of urinary disorders” (priority 2005, published 2007).
# What was measured:
# Sprague-Dawley rats [1] = assay: Example 1: diuresis after oral gavage of diuretic polyols; type: in vivo; conditions: for Diuresis 45 min / Diuresis 1 h 35 min / Diuresis 3 h / Diuresis 5 h / Diuresis 7 h / Cumulative diuresis over 24 h / Diuresis Before gavage: means on ten rats; for Diuresis 45 min: control A 0.9; for Diuresis 1 h 35 min / Diuresis 7 h: control A 0.6; for Diuresis 3 h: control A 0.4; for Diuresis 5 h: control A 0.7; for Cumulative diuresis over 24 h: control A 11.7; for Diuresis Before gavage: control A 3.2
# Method: (§1) A batch of rats were orally administered doses of diuretic polyols so as to measure the diuretic effect of said polyols and their possible influence on the amount of water drunk. The study was carried out on a batch of thirty rats, for 4 days, and the trial doses were administered at a rate of 2 ml per animal and per day of solutions at 250 g/litre of polyols. Water is distributed to the animals ad libitum. The amounts of urine output and of drink consumed are measured by weighing.
# (§2) The amounts of drink are expressed in grams per animal and per day. Diuresis is expressed in millilitres as a function of time. • Batch A: control batch • Batch B: erythritol gavage • Batch C: mannitol gavage • Batch D: isosorbide gavage • Batch E: 1/1 isosorbide-mannitol mixture
# Diuresis (Means on Ten Rats, in Millilitres)
# Sprague-Dawley rats [2] = assay: Example 1: consumption of drink after oral gavage of diuretic polyols; type: in vivo; conditions: for water consumption compared with the control (in words): after polyol gavage; for water consumption over four days: control batch A 11.2
# Method: as §1, §2
# Consumption of Drink (Means on Ten Rats)
# [3] = gavage 2 ml per animal and per day of 250 g/litre solution, means on ten rats
Compound,Diuresis 45 min (Sprague-Dawley rats [1]) [millilitres],Diuresis 1 h 35 min (Sprague-Dawley rats [1]) [millilitres],Diuresis 3 h (Sprague-Dawley rats [1]) [millilitres],Diuresis 5 h (Sprague-Dawley rats [1]) [millilitres],Diuresis 7 h (Sprague-Dawley rats [1]) [millilitres],Cumulative diuresis over 24 h (Sprague-Dawley rats [1]) [millilitres],time from which an increase in diuresis is observed (Sprague-Dawley rats [1]; after gavage) [h],Diuresis Before gavage (Sprague-Dawley rats [1]) [millilitres],water consumption compared with the control (in words) (Sprague-Dawley rats [2]),"water consumption (Sprague-Dawley rats [2]; gavage 2 ml per animal and per day of 250 g/litre solution, means on ten rats, control batch A 24.8) [g/animal/day]",water consumption over four days (Sprague-Dawley rats [2]; [3]) [g/animal/day]
"OC[C@@H](O)[C@@H](O)CO [B (erythritol), erythritol]",0.21,0.99,1.38,1.21,0.83,18.43,≥ 3,1.02,not greater than the control,17.9,
"OC[C@@H](O)[C@@H](O)[C@H](O)[C@H](O)CO [C (mannitol), mannitol]",0.3,0.3,0.7,0.5,1.3,16.5,,3.0,very slightly greater than the control,,13.9
"O[C@@H]1CO[C@H]2[C@@H]1OC[C@@H]2O [D (isosorbide), isosorbide]",1.5,1.1,1.2,1.1,0.6,13.0,,2.4,very slightly greater than the control,,13.1
